For 1 compound, Kd results are on record in patent publication CN104630230A, “一组特异识别大田软海绵酸的核酸适配体” (priority 2015, dated 2015).

Like-named read-outs stand apart in the source and are kept apart here.

Common to all, as to test: Affinity analysis (GO separation, FAM fluorescence, saturation binding)
The target in experiment [1] is 5'-FAM-labelled single-stranded DNA aptamer OA27-1 (truncated OA-27, random region 40 nt) (核酸适配体 OA27-1). To be noted: OA27-1, saturation binding curve (Fig. 4B).
Experiment [2] addresses 5'-FAM-labelled ssDNA OA-22 (80 nt). To be noted: 1 μM OA, 5-200 nM ssDNA, 2 h in the dark, ex 490 nm / em 520 nm.
For experiment [3], the target named is 5'-FAM-labelled ssDNA OA-17 (80 nt). Particulars: 1 μM OA, 5-200 nM ssDNA, 2 h in the dark, ex 490 nm / em 520 nm.
Experiment [4] deals with 5'-FAM-labelled single-stranded DNA aptamer OA-27 (80 nt) (核酸适配体 OA-27).
For experiment [5], the target named is 5'-FAM-labelled ssDNA OA-08 (80 nt). Particulars: 1 μM OA, 5-200 nM ssDNA, 2 h in the dark, ex 490 nm / em 520 nm.

Usually Kd stands for the equilibrium constant for the complex coming apart. Turning to `C=C1[C@@H](O)[C@@H]2O[C@]3(CC[C@H](/C=C/[C@@H](C)[C@@H]4CC(C)=C[C@@]5(O[C@H](C[C@@](C)(O)C(=O)O)CC[C@H]5O)O4)O3)CC[C@H]2O[C@@H]1[C@@H](O)C[C@H](C)[C@H]1O[C@@]2(CCCCO2)CC[C@H]1C` [OA, Okadaic acid], the Kd in experiment [1] was 39 nM; in experiment [2], under 100 nM; in experiment [3], under 100 nM; in experiment [4] (1 μM OA, 5-200 nM ssDNA, 2 h in the dark, GO separation, ex 490 nm / em 520 nm, read-out: Kd) it was under 100 nM; in experiment [4] (in words, OA-27 compared with the other ssDNA sequences of the 8 tested (Fig. 4A)) it was “其Kd值最小”; in experiment [5], under 100 nM.
